Values after ≈ are worked out from the molar mass of the structure shown. Where two headings read alike, the source gives them in different places.
Legend:
[1] = tested on: E. aerogenes ATCC 13048; experiment: MIC assay; type: cell-based, Enterobacter aerogenes; conditions: Klebsiella aerogenes
Text: (§1) Bacterial strains, growth conditions, and persister isolation. Methicillin-resistant S. aureus strains, MW2 BAA-1707, ATCC 33591, and JE2, methicillin-susceptible S. aureus strains, NCTC 8325, Newman, and ATCC 29213, vancomycin-resistant S. aureus strain, VRS1, Enterococcus faecium E007, vancomycin-resistant E. faecium strains, C68,^7 WB312, and WC196, Klebsiella pneumoniae WGLW2 (BEI Resources, Manassas, Va., USA), Acinetobacter baumannii ATCC 17978, Pseudomonas aeruginosa PA14, and Enterobacter aerogenes ATCC 13048 were used to test antimicrobial activity (Table 1). S. aureus strains were grown in tryptic soy broth (TSB) (BD, Franklin Lakes, N.J., USA), and E. faecium was grown in brain-heart infusion (BHI) broth (BD, Franklin Lakes, N.J., USA) at 37° C. K. pneumoniae, A. baumannii, P. aeruginosa, and E. aerogenes were grown in Luria Bertani (LB) broth (BD, Franklin Lakes, N.J., USA) at 37° C.
(§2) Minimal inhibitory concentration (MIC) assay. The MICS of antibiotics were determined by the standard micro-dilution method recommended by the Clinical and Laboratory Standards Institute. MIC assays were conducted in biological triplicate.

[2] = tested on: P. aeruginosa PA14; experiment: MIC assay; type: cell-based, Pseudomonas aeruginosa; conditions: Pseudomonas aeruginosa
Text: as §1, §2

[3] = tested on: A. baumannii ATCC 17978; experiment: MIC assay; type: cell-based, Acinetobacter baumannii; conditions: Acinetobacter baumannii
Text: as §1, §2

[4] = tested on: E.faecium E007; experiment: MIC assay; type: cell-based, Enterococcus faecium; conditions: Enterococcus faecium
Text: as §1, §2

[5] = tested on: E. faecium C68; experiment: MIC assay; type: cell-based, Enterococcus faecium; conditions: Enterococcus faecium
Text: as §1, §2

[6] = tested on: E. faecium WC196; experiment: MIC assay; type: cell-based, Enterococcus faecium; conditions: Enterococcus faecium
Text: as §1, §2

[7] = tested on: E. faecium WB312; experiment: MIC assay; type: cell-based, Enterococcus faecium; conditions: Enterococcus faecium
Text: as §1, §2

[8] = tested on: S. aureus ATCC 33591; experiment: MIC assay; type: cell-based; conditions: Staphylococcus aureus
Text: as §1, §2

[9] = tested on: S. aureus VRS1; experiment: MIC assay; type: cell-based; conditions: Staphylococcus aureus
Text: as §1, §2

[10] = tested on: S. aureus Newman; experiment: MIC assay; type: cell-based; conditions: Staphylococcus aureus, read-out: Minimum inhibitory concentration
Text: as §1, §2

[11] = tested on: S. aureus NCTC 8325; experiment: MIC assay; type: cell-based; conditions: Staphylococcus aureus
Text: as §1, §2

[12] = tested on: S. aureus JE2; experiment: MIC assay; type: cell-based; conditions: Staphylococcus aureus
Text: as §1, §2

[13] = tested on: MRSA MW2; experiment: Serial passage resistance development; type: cell-based, S. aureus; conditions: 25 days, sub-MIC concentrations
Protocol: Serial passage resistance development. […] Briefly, an extended range of concentrations of nTZDpa was generated by two-fold serial dilution with cation-adjusted Mueller Hinton (CaMH) broth (Difco, Detroit, USA) from three different starting concentrations (20, 24, and 32 μg/mL) covering 0.1875 to 32.0 μg/mL, which extended over three rows of the 96-well plate. Three sets of the extended gradient of nTZDpa were created in the 96-well plate to provide triplicates of the experiment. […] MRSA MW2 overnight cultures were adjusted to 1×10^6 CFU/mL in CaMH broth, and 50 μL of the diluted cultures were dispensed into the 96-well plates containing 50 μL of the extended gradient of antibiotics. After incubation for 24 h at 35° C., bacterial growth was determined by measuring optical density at 600 nm using a SpectraMax plate reader (Molecular Devices, Sunnyvale, Calif.), and growth was defined as an optical density reading of ≥0.1. Bacterial cells growing at the highest concentration of the antimicrobial (just below the MIC) were diluted 1:1000 in CaMH broth and then used to inoculate the next day's serial-passage plate. The remaining bacterial cells were stored at −80° C. in CaMH broth with 16% glycerol. This process was repeated for 25 days.

[14] = tested on: K. pneumoniae WGLW2; experiment: MIC assay; type: cell-based, Klebsiella pneumoniae; conditions: Klebsiella pneumoniae
Text: as §1, §2

[15] = tested on: exponential-phase MRSA MW2; experiment: Killing kinetics assay; type: cell-based, S. aureus; conditions: 32 μg/ml (32× MIC), after 4 hours
Protocol: Killing kinetics assay. An MRSA MW2 overnight culture was diluted 1:10,000 in 25 mL TSB (˜10^5 CFU/mL) in a 250 mL flask and incubated at 37° C. with shaking at 200 rpm for 4.5 h until it reached exponential-phase (˜2×10^7 CFU/mL). 1 mL of the exponential phase cell culture was mixed with 1 mL of pre-warmed TSB containing twice the desired concentrations of antibiotics in a 96-well assay block (Corning Costar 3960). The assay block was incubated at 37° C. with shaking at 200 rpm. At every hour, 400 μl aliquots were taken, washed once with phosphate buffered saline (PBS), serially diluted and spot-plated onto tryptic soy agar (TSA, BD) plates. After incubation at 37° C. for overnight, colonies were counted to enumerate the number of cells. These experiments were conducted in biological triplicate.

[16] = tested on: S. aureus ATCC 29213; experiment: MIC assay; type: cell-based; conditions: Staphylococcus aureus, ATCC29213, read-out: Minimum inhibitory concentration
Text: as §1, §2

[17] = tested on: S. aureus (MRSA) MW2; experiment: Minimal inhibitory concentration (MIC) assay, micro-dilution; type: cell-based; conditions: Staphylococcus aureus, MRSA, read-out: Minimum inhibitory concentration
Text: as §1, §2

[18] = tested on: MRSA MW2; experiment: Antibiotic synergy test (checkerboard); type: cell-based, S. aureus; conditions: nTZDpa in combination with the named antibiotic, synergy if FICI ≤ 0.5
Protocol: Antibiotic synergy test. Antibiotic synergism was evaluated by the checkerboard method. Briefly, 2-fold serial dilutions of nTZDpa were combined with 2-fold serial dilutions of each other antibiotic, which created an 8×8 matrix in a 96-well microtiter plate. The fractional inhibitory concentration index (FICI) was calculated as follows: FICI=MIC of compound A in combination/MIC of compound A alone+MIC of compound B in combination/MIC of compound B alone. The interaction between two compounds was defined, as follows: synergy if FICI≤0.5, no interaction if 0.5<FICI≤4, and antagonism if FICI>4.

[19] = tested on: MRSA MW2; experiment: Deep-seated mouse thigh infection model; type: in vivo; conditions: vancomycin 25 mg/kg i.p., gentamicin 30 mg/kg s.c., nTZDpa 50 mg/kg i.p., 5 days
Protocol: Deep-seated mouse thigh infection model. In vivo efficacy of nTZDpa alone or in combination with gentamicin against MRSA persisters was evaluated by a previously described neutropenic mouse thigh infection model with modifications. Six-week-old female CD-I mice (20-25 g, Charles River Laboratories, Wilmington, Mass., USA) were obtained from Charles River Laboratories (Wilmington, Mass., USA). The CD-I mice were rendered neutropenic by administering 150 mg/kg and 100 mg/kg of cyclophosphamide intraperitoneally (i.p.) at 4 days and 1 day before infection, respectively. On the day of infection, overnight culture of MRSA MVV2 was washed 3-time with sterile saline and diluted to 10^7 CFU/ml in the saline. 50 μl of the diluted culture (5×10^5 CFU per mouse) was injected to the right thigh of each mouse. nTZDpa was dissolved in Kolliphor EL (Sigma-Aldrich, St Louis, Mo., USA)/ethanol 1:1 and then diluted 1:10 in saline to a final concentration of 50 mg/kg. At 24 h post-infection, groups of mice (n=10) were treated with 30 mg/kg gentamicin subcutaneously (s.c.) every 12 h, 25 mg/kg vancomycin i.p. every 24 h, 50 mg/kg nTZPpa i.p. every 24 h, or the combination of 50 mg/kg nTZDpa i.p. every 24 h and 30 mg/kg gentamicin s.c. every 12 h for 5 days. Control mice were injected with 250 μl of 10% Kolliphor EL/ethanol in saline i.p. every 24 h for 5 days. Mice were euthanized at 96 h post-infection. Blood was collected by cardiac puncture, and the infected thighs were aseptically excised, weighed, and stored at 4° C. until homogenization. To evaluate hepatic and renal toxicities, the levels of alanine aminotransferase and blood urea nitrogen were analyzed with commercially available kits, following the manufacturer's protocol (Pointe Scientific, Canton, Mich., USA). Thighs were homogenized in PBS, serially diluted with PBS, and spot-plated on TSA plates. […] Statistical significance among each group was analyzed by one-way ANOVA with post-hoc Tukey test using PASW Statistics 18 (SPSS Inc. Chicago, Ill., USA).

With `O=C(O)c1cn(C2CC2)c2cc(N3CCNCC3)c(F)cc2c1=O` [Ciprofloxacin, ciprofloxacin] the MIC ([1]; ATCC13048, E. aerogenes ATCC 13048, read-out: Minimum inhibitory concentration) was 0.031 mg/L (≈ 0.0936 µM), the MIC ([2]; P. aeruginosa PA14, read-out: Minimum inhibitory concentration) was 0.063 mg/L (≈ 0.19 µM) and the MIC ([3]; ATCC17978, A. baumannii ATCC 17978, read-out: Minimum inhibitory concentration) was 0.25 mg/L (≈ 0.754 µM). The MIC ([4]; E.faecium E007, read-out: Minimum inhibitory concentration) was greater than 64 mg/L, the MIC ([5]; E. faecium C68, read-out: Minimum inhibitory concentration) was greater than 64 mg/L and the MIC ([6]; E. faecium WC196, read-out: Minimum inhibitory concentration) was 1 mg/L (≈ 3.02 µM). It also gave an MIC ([7]; E. faecium WB312, read-out: Minimum inhibitory concentration) of 32 mg/L (≈ 96.6 µM), an MIC ([8]; ATCC33591, S. aureus ATCC 33591, read-out: Minimum inhibitory concentration) of 0.25 mg/L (≈ 0.754 µM) and an MIC ([9]; S. aureus VRS1, read-out: Minimum inhibitory concentration) of 64 mg/L (≈ 193 µM). The MIC ([10]; S. aureus Newman) was 0.25 mg/L (≈ 0.754 µM), the MIC ([11]; NCTC8325, S. aureus NCTC 8325, read-out: Minimum inhibitory concentration) was 0.125 mg/L (≈ 0.377 µM) and the MIC ([12]; S. aureus JE2, read-out: Minimum inhibitory concentration) was 16 mg/L (≈ 48.3 µM). For the same compound, the “increase of MIC over wild-type after serial passage” value [13] was 32 fold and the MIC ([14]; K. pneumoniae WGLW2, read-out: Minimum inhibitory concentration) was 0.031 mg/L (≈ 0.0936 µM).
`CN[C@H](CC(C)C)C(=O)N[C@H]1C(=O)N[C@@H](CC(N)=O)C(=O)N[C@H]2C(=O)N[C@H]3C(=O)N[C@H](C(=O)N[C@H](C(=O)O)c4cc(O)cc(O)c4-c4cc3ccc4O)[C@H](O)c3ccc(c(Cl)c3)Oc3cc2cc(c3O[C@@H]2O[C@H](CO)[C@@H](O)[C@H](O)[C@H]2O[C@H]2C[C@](C)(N)[C@H](O)[C@H](C)O2)Oc2ccc(cc2Cl)[C@H]1O` [Vancomycin, vancomycin] showed an MIC ([1]; ATCC13048, read-out: Minimum inhibitory concentration) greater than 64 mg/L, an MIC ([2]; PA14, read-out: Minimum inhibitory concentration) greater than 64 mg/L and an MIC ([3]; ATCC17978, read-out: Minimum inhibitory concentration) greater than 64 mg/L. It also gave an MIC ([4]; E007, read-out: Minimum inhibitory concentration) of 1 mg/L (≈ 0.69 µM), an MIC ([5]; C68, read-out: Minimum inhibitory concentration) of 64 mg/L (≈ 44.2 µM) and an MIC ([6]; WC196, read-out: Minimum inhibitory concentration) of 64 mg/L (≈ 44.2 µM). It also gave an MIC ([7]; WB312, read-out: Minimum inhibitory concentration) of 16 mg/L (≈ 11 µM), a decrease in viability [15] of 2 log and an MIC ([8]; ATCC33591, read-out: Minimum inhibitory concentration) of 2 mg/L (≈ 1.38 µM). It also gave an MIC ([9]; VRS1, read-out: Minimum inhibitory concentration) greater than 64 mg/L, an MIC ([10]; NEWMAN) of 2 mg/L (≈ 1.38 µM) and an MIC [16] of 1 mg/L (≈ 0.69 µM). It also gave an MIC ([11]; NCTC8325, read-out: Minimum inhibitory concentration) of 1 mg/L (≈ 0.69 µM), an MIC ([12]; JE2, read-out: Minimum inhibitory concentration) of 1 mg/L (≈ 0.69 µM) and an MIC [17] of 1 mg/L (≈ 0.69 µM). For the same compound, the MIC ([14]; WGLW2, read-out: Minimum inhibitory concentration) was greater than 64 mg/L, the “FICI (fractional inhibitory concentration index)” value [18] was 1 and the “MRSA CFUs / viability of persisters in thigh, single agent” value [19] was “neither vancomycin nor gentamicin reduced MRSA CFUs”.
